According to US20240391862A1, “(1,4,5-TRISUBSTITUTED-1H-PYRAZOL-3-YL)OXY-2-ALKOXY ALKYL ACIDS AND THEIR DERIVATIVES, THEIR SALTS AND THEIR USE AS HERBICIDAL AGENTS” (Bayer AKtiengesellschaft, priority 2021, published 2024):

What was measured:
ZEAMX = assay: Post-emergence herbicidal effect and crop plant compatibility, greenhouse pot test; type: in vivo, Zea mays; conditions: Zea mays, 504 h, one-leaf stage, rated visually after about 3 weeks vs untreated controls
Method in brief: (§1)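 Greenhouse pot plants in sandy loam receive a one-leaf-stage spray at 20 to 320 g/ha. Activity is assessed visually around 3 weeks afterwards on a 0–100% scale, where 100% means the plants have died.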

TRZAS = assay: as above; type: in vivo, Triticum aestivum; conditions: Triticum aestivum, 504 h, 20 g/ha, one-leaf stage, rated visually after about 3 weeks vs untreated controls, read-out: Post-emergence effect at 20 g/ha against TRZAS in %
Method in brief: as §1

BRSNW = type: in vivo, Brassica napus; conditions: one-leaf stage, rated visually after about 3 weeks vs untreated controls
Source text: • ALOMY: Alopecurus myosuroides SETVI: Setaria viridis • AVEFA: Avena fatua POLCO: Fallopia convolvulus • AMARE: Amaranthus retroflexus ECHCG: Echinochloa crus-galli • LOLRJ: Lolium rigidum STEME: Stellaria media • VERPE: Veronica persica MATIN: Tripleurospermum inodorum • DIGSA: Digitaria sanguinalis ABUTH: Abutylon threophrasti • TRZAS: Triticum aestivum VIOTR: Viola tricolor • BRSNW: Brassica napus ZEAMX: Zea mays • PHBPU: Ipomoea purpurea GLXMA: Glycine max • ORYSA: Oryza sativa HORMU: Hordeum murinum
Seeds of monocotyledonous and dicotyledonous weeds and crop plants are placed in sandy loam in plastic or organic planting pots, covered with soil and cultivated in a greenhouse under controlled growth conditions. 2 to 3 weeks after sowing, the trial plants are treated at the one-leaf stage. The compounds of the invention, formulated in the form of wettable powders (WP) or as emulsion concentrates (EC), are then sprayed onto the green parts of the plants as aqueous suspension or emulsion with addition of 0.5% additive at a water application rate of 600 l/ha (converted). After the test plants have been kept in the greenhouse under optimum growth conditions for about 3 weeks, the activity of the preparations is rated visually in comparison to untreated controls. For example, 100% activity=the plants have died, 0% activity=like control plants.
Tables 20a to 38c below show the effects/crop compatibilities of selected compounds of the general formula (I) on various harmful plants at an application rate corresponding to 20 to 320 g/ha, which were obtained by the trial procedure specified above.

VIOTR = assay: Post-emergence herbicidal effect, greenhouse pot test; type: in vivo, Viola tricolor; conditions: Viola tricolor, 504 h, 320 g/ha, read-out: Post-emergence effect against VIOTR in %
Method in brief: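 Sandy loam pots, greenhouse. One-leaf stage (2–3 wk after sowing) foliar spray; WP/EC in water + 0.5% additive, 600 l/ha; 20–320 g/ha. Visual score ~3 wk, 0–100% vs untreated.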

`CCOC(Oc1nn(-c2ccccc2F)c(-c2ccc(F)nc2)c1Br)C(=O)O` (racemic) [Example I-51, (2RS)-{[4-Bromo-1-(2-fluorophenyl)-5-(6-fluoropyridin-3-yl)-1H-pyrazol-3-yl]oxy}(ethoxy)acetic acid] showed a plant injury at 20 g/ha (ZEAMX; 20 g/ha, read-out: Post-emergence effect at 20 g/ha against ZEAMX in %) of 0%, a plant injury at 80 g/ha (ZEAMX; 80 g/ha, read-out: Post-emergence effect at 80 g/ha against ZEAMX in %) of 0% and a plant injury at 320 g/ha (ZEAMX; 320 g/ha, read-out: Post-emergence effect at 320 g/ha against ZEAMX in %) of 0%. For the same molecule, the percent crop injury (phytotoxicity) to wheat, post-emergence at 20 g/ha (TRZAS) was 0%, the “Post-emergence effect at 320 g/ha against BRSNW in %” value (BRSNW) was 0% and the pest or weed control at 320 g/ha (VIOTR) was 80%.
